Data published in publication PMC8226474, “Design, Syntheses, and Bioevaluations of Some Novel N^2-Acryloylbenzohydrazides as Chemostimulants and Cytotoxic Agents” (Medicines, 2021).
Where “and” joins values, the source holds several entries; their conditions need not be identical. Equal values may be shown once. Read-outs that look alike come from different tables or passages of the source.

Columns and labels:
[1] = test system: CRL 1790 cells; experiment: Cytotoxicity assay, non-malignant CRL 1790 colon cells; type: cell-based; settings: Homo sapiens, 48 h
Description: (§1) Evaluation of the cytotoxic properties of the compounds presented in Table 1, Table 2, Table 3 and Table 4 was undertaken using the procedure outlined in [7]. In brief, the HCT 116 cells were obtained from the ATCC and cultured in McCoy’s 5A medium. The CRL 1790 cells were obtained from the ATCC and cultured in Minimum Essential Medium. The MCF-7 and MDA-MBA-231 cells were obtained from the Saskatchewan Cancer Agency and cultured in DMEM. In each assay the culture medium was supplemented with 10% fetal bovine serum and 1% penicillin–streptomycin antibiotics. The time of the bioassays was 48 h, unless indicated otherwise. All determinations were carried out in triplicate on three different occasions.

[2] = test system: HCT 116 cells; experiment: Cytotoxicity assay, HCT 116 colon cancer cells; type: cell-based, human; settings: for IC50 / inhibition at 10 µM / inhibition at 100 µM: Homo sapiens, HCT-116, 48 h; for SI (selectivity index): IC50 CRL 1790 / IC50 HCT 116; for inhibition at 10 µM / inhibition at 100 µM: read-out: percentage inhibition of HCT 116 cells
Description: as §1

[3] = test system: HCT 116 cells; experiment: ROS levels in HCT 116 cells (DCF-DA dye); type: cell-based, human; settings: IC50 concentration towards HCT 116; DCF-DA fluorescence; Figure 5
Experimental: In this assay, the dye 2,7-dichlorofluorescein diacetate (DCF-DA) was used, and the effects of 1m, 7a, e, g, and 5-FU on the ROS levels in HCT 116 cells were determined by the method of [11].
The evaluation of 1m, […], e, and g for their capacity to increase the concentration of ROS in HCT 116 cells used 2′,7′-dichlorofluorescein diacetate. This dye is deacetylated in cells, and is converted into a non-fluorescent compound that reacts with ROS to form 2′,7′-dichlorofluorescein, which is fluorescent.

[4] = test system: HCT 116 cells; experiment: Mitochondrial membrane potential of HCT 116 cells (TMRE dye); type: cell-based, human; settings: IC50 concentration towards HCT 116, 48 h, Figure 4
Description: The method of Crowley et al. was employed in order to ascertain the effects of 1m, 7a, e, g, and 5-FU on the mitochondrial membrane potential of HCT 116 cells.
The decision was made to experiment with another method for determining the effect of compounds on the MMP. In this assay, the dye used was tetramethylrhodamine ethyl ester (TMRE), which can be found in the mitochondria of healthy cells. However, in apoptotic cells, the dye is released into the cytosol, leading to a decrease in the fluorescence signal.

[5] = test system: MDA-MB-231 cells; experiment: Cytotoxicity assay, MDA-MB-231 breast cancer cells; type: cell-based, human; settings: Homo sapiens, MDA-MB-231, 48 h, read-out: percentage inhibition of MDA-MB-231 cells
Description: as §1

[6] = test system: MCF-7 cells; experiment: Cytotoxicity assay, MCF-7 breast cancer cells; type: cell-based, human; settings: for inhibition at 10 µM / inhibition at 100 µM / IC50: Homo sapiens, MCF7, 48 h; for inhibition at 10 µM / inhibition at 100 µM: read-out: percentage inhibition of MCF-7 cells; for IC50 / SI (selectivity index): Table 2; for IC50: read-out: Neoplastic Cells IC50, MCF-7; for SI (selectivity index): IC50 CRL 1790 / IC50 MCF-7
Description: as §1

[7] = test system: HCT 116 cells; experiment: Chemosensitization of HCT 116 cells: 1m for 24 h, then 2a or 5-FU for a further 24 h; type: cell-based, human; settings: for Reduction in Live Cells % 1m (48 h): DMSO figure minus compound figure
Description: as §1
The next phase of the investigation was to determine whether a representative compound in series 1 chemosensitizes HCT 116 cells to a 3,5-bis(benzylidene)-4-piperidone 2a. […] The colon cancer cells were incubated for 24 h with 1m, and then 2a was added and the incubation was continued for a further 24 h. Different concentrations of both 1m and 2a were employed, and the results are presented as entries 1–12 in Table 3. In addition, the effects of each of 1m, 2a, and 5-FU on HCT 116 cells (which are necessary for the evaluation of whether chemosensitivity occurs) were recorded, and are presented as entries 13–20 in Table 3.
The concentration of 1m in combination 4 is 5 µM, which after 48 h causes a percentage reduction of live cells to 86% (DMSO figure after 48 h, line 20) minus 75% (48 h, line 13), or 11%.
The concentration of 2a in combination 4 is 0.2 µM. This combination leads to a reduction of the percentage of live cells to 91% (DMSO figure after 24 h, line 20) minus 69%, or 22%.
The percentage reduction in live cells caused by a combination of 1m (5 µM) and 2a (0.2 µM), in the absence of chemosensitization, is 11% plus 22%, or 33%.
However, the percentage reduction in cells as indicated on line 4 is 86% (DMSO figure after 48 h) minus 12% (line 4, 48 h figure), or 74%.

[8] = Table 4, read-out: IC50 CRL 1790
[9] = Table 4, read-out: IC50 HCT 116
[10] = ratio of IC50 values towards HCT 116 cells
[11] = Table 2, read-out: Non-Malignant CRL 1790 Cells IC50
[12] = Table 2, read-out: Neoplastic Cells IC50, HCT 116

Structure (SMILES) | IC50 [1, 8] [µM] | melting point [°C] | IC50 [2, 9] [µM] | SI (selectivity index) ([2]; Table 4) | effect on ROS levels in HCT 116 cells [3] | effect on mitochondrial membrane potential of HCT 116 cells [4] | inhibition at 10 µM [5] [%] | inhibition at 100 µM [5] [%] | IC50 [1, 11] [µM] | inhibition at 10 µM [6] [%] | inhibition at 100 µM [6] [%] | inhibition at 10 µM [2] [%] | inhibition at 100 µM [2] [%] | further results
COc1ccc(C(=O)NNC(=O)CCN2CC(=Cc3ccc(F)cc3)C(=O)C(=Cc3ccc(F)cc3)C2)cc1OC [7d, 3,5-Bis(4-fluorobenzylidene)-1-[3-(3,4-dimethoxyphenylcarbonylaminoamino)-3-oxo-1-propyl]-4-piperidone] | 11.4 ± 2.22 | 198 to 200 | 3.82 ± 0.11 | 2.99 |  |  |  |  |  |  |  |  |  | 
COc1ccc(C(=O)NNC(=O)CCN2CC(=Cc3ccc([N+](=O)[O-])cc3)C(=O)C(=Cc3ccc([N+](=O)[O-])cc3)C2)cc1OC [7e, 3,5-Bis(4-nitrobenzylidene)-1-[3-(3,4-dimethoxyphenylcarbonylaminoamino)-3-oxo-1-propyl]-4-piperidone] | 4.57 ± 0.53 | 153 to 158 | 0.28 ± 0.01 | 16.3 | increase the fluorescence intensity | reduces the electrochemical potential of the mitochondria |  |  |  |  |  |  |  | times more potent than 5-FU [2, 10]: 14.7 times; times the antineoplastic activity of melphalan [2, 10]: 119 times
COc1ccc(C(=O)NNC(=O)CCN2CC(=Cc3ccc(C)cc3)C(=O)C(=Cc3ccc(C)cc3)C2)cc1OC [7g, 3,5-Bis(4-methylbenzylidene)-1-[3-(3,4-dimethoxyphenylcarbonylaminoamino)-3-oxo-1-propyl]-4-piperidone] | 9.24 ± 0.52 | 190 to 192 | 1.94 ± 0.18 | 4.76 | increase the fluorescence intensity | only 7e reduces the electrochemical potential of the mitochondria |  |  |  |  |  |  |  | 
C=CC(=O)NNC(=O)c1ccc(OC)c(OC)c1 [1m, N^2-Acryloyl-3,4-dimethoxylbenzohydrazide] |  | 163 to 165 |  |  | increase the fluorescence intensity | only 7e reduces the electrochemical potential of the mitochondria | -15.9 ± 1.96 | 50.5 ± 1.42 | > 100 | -16.1 ± 3.51 | > 100 | 46.9 ± 2.55 | 97.9 ± 1.92 | Reduction in Live Cells % 1m (48 h) ([7]; 1m 5 µM alone, 48 h): 11%; Reduction in Live Cells % 1m (48 h) ([7]; 1m 10 µM alone, 48 h): 29%; Reduction in Live Cells % 1m (48 h) ([7]; 1m 15 µM alone, 48 h): 54%; chemosensitization of HCT 116 cells ([7]; 1m 24 h before the cytotoxin, certain concentrations): sensitizes HCT 116 cells to the potent cytotoxin 2a, and also to the established anticancer drug 5-FU; Live Cells % ([7]; entry 13: 1m 5 µM alone, 24 h): 88 ± 2.82%; Live Cells % ([7]; entry 13: 1m 5 µM alone, 48 h): 75% and 75 ± 4.89%; Live Cells % ([7]; entry 14: 1m 10 µM alone, 24 h): 67 ± 1.67%; Live Cells % ([7]; entry 14: 1m 10 µM alone, 48 h): 57 ± 1.76%; Live Cells % ([7]; entry 15: 1m 15 µM alone, 24 h): 61 ± 3.49%; Live Cells % ([7]; entry 15: 1m 15 µM alone, 48 h): 32 ± 0.94%; IC50 [2, 12]: 15.3 ± 0.42 µM; SI (selectivity index) ([2]; Table 2): >6.54
C=CC(=O)NNC(=O)c1ccccc1C [1j, N^2-Acryloyl-2-methylbenzohydrazide] |  | 151 to 153 |  |  |  |  | -2.64 ± 2.37 | 46.8 ± 3.63 | > 100 | 53.3 ± 3.07 | > 100 | 10.4 ± 1.61 | 62.1 ± 2.48 | IC50 [6]: 9.14 ± 1.31 µM; SI (selectivity index) [6]: >10.9
CCC(=O)NNC(=O)c1ccccc1 [6a, N^2-Propionylbenzohydrazide] |  | 106 to 107 |  |  |  |  | -25.3 ± 1.82 | -11.6 ± 2.52 | > 100 | -19.6 ± 3.66 | -5.69 ± 2.54 | -10.5 ± 2.93 | 9.35 ± 2.53 | IC50 [2, 12]: > 100 µM; SI (selectivity index) ([2]; Table 2): ~1.00
O=C(CCN1CC(=Cc2ccccc2)C(=O)C(=Cc2ccccc2)C1)NNC(=O)c1ccccc1 [7a, 3,5-Bis(benzylidene)-1-[3-(phenylcarbonylaminoamino)-3-oxo-1-propyl]-4-piperidone] | 12.3 ± 1.09 | 154 to 156 | 1.38 ± 0.25 |  | increase the fluorescence intensity | only 7e reduces the electrochemical potential of the mitochondria |  |  |  |  |  |  |  | times more potent than 1a [2, 10]: 26.7 times
C=CC(=O)NNC(=O)c1ccc(C)cc1 [1k, N^2-Acryloyl-4-methylbenzohydrazide] |  | 157 to 160 |  |  |  |  | -8.78 ± 1.52 | 74.7 ± 2.96 | > 100 | 55.3 ± 3.05 | > 100 | 11.5 ± 2.99 | > 100 | IC50 [6]: 5.54 ± 0.51 µM; SI (selectivity index) [6]: >18.1
COc1ccc(C(=O)NNC(=O)CCN2CC(=Cc3ccc(Cl)cc3)C(=O)C(=Cc3ccc(Cl)cc3)C2)cc1OC [7c, 3,5-Bis(4-chlorobenzylidene)-1-[3-(3,4-dimethoxyphenylcarbonylaminoamino)-3-oxo-1-propyl]-4-piperidone] | 12.2 ± 1.22 | 200 to 202 | 3.4 ± 0.01 | 3.60 |  |  |  |  |  |  |  |  |  | 
